The text below walks through data of US7868026B2, “Therapeutic compounds” (Pfizer Inc., priority 2005, dated 2011).

By IC50 is commonly meant the concentration at which inhibition is half-maximal.

Like-named read-outs stand apart in the source and are kept apart here.

Holding throughout (assay type): biochemical
Experiment [1] addresses T1, CYP3A4 (Homo sapiens, UniProt P08684). Briefly: Determination of IC50 against CYP3A4 by measurement of inhibition of midazolam metabolism (human liver microsomes, 1-hydroxymidazolam by LC-MS/MS). To be noted: 2 μM midazolam, 0.1 mg/mL human liver microsomes. The arrangement: 0.1 mg/mL human liver microsomes. Summed up: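 Human liver microsomes (0.1 mg/mL) incubated 8 min with 2 μM midazolam and 1 mM NADPH in 100 mM potassium phosphate, pH 7.4. 1-Hydroxymidazolam quantified by LC-MS/MS (MRM) as peak area ratio to internal standard against a metabolite standard curve.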
(Microsomes from liver hold many membrane-bound enzymes, among them those of drug oxidation.)

The target in experiment [2] is T1, CYP3A4. Put plainly: Determination of compound Kiapp against recombinant CYP3A4 enzyme (BFC fluorescent substrate). Summed up:
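Recombinant CYP3A4 (5.5 or 8 nM, with or without b5 depending on source) pre-incubated with inhibitor ≥30 min at room temperature in 100 mM sodium phosphate pH 7.0, 5 mM TCEP, 2% DMF. Reaction started with 200 uM NADPH and 5 uM BFC; initial fluorescence rates over 5 min fitted to Morrison tight-binding (non-partial) or Szedlacsek (partial) equations for Kiapp.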

Experiment [3] concerns the target T1, CYP3A4. Briefly: Determination of IC50 against CYP3A4 by measurement of inhibition of testosterone metabolism (human liver microsomes, 6-β-OH-testosterone by LC-MS/MS). The arrangement: 0.1 mg/mL human liver microsomes. To be noted: read-out: IC50 (Testo.). Summed up:
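Human liver microsomes (0.1 mg/mL) incubated with 25 μM testosterone and 1 mM NADPH in 100 mM potassium phosphate, pH 7.4, for eight minutes. 6-β-OH-testosterone measured by LC-MS/MS in MRM mode against an internal standard and quantified from a metabolite standard curve.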

Setting [4] is: Baculo. enzyme preparation, read-out: Kiapp (BFC, Baculo.).
Where [5] appears, read: Super. enzyme preparation, read-out: Kiapp (BFC, Super.).

T1 sequence (P08684 whole entry): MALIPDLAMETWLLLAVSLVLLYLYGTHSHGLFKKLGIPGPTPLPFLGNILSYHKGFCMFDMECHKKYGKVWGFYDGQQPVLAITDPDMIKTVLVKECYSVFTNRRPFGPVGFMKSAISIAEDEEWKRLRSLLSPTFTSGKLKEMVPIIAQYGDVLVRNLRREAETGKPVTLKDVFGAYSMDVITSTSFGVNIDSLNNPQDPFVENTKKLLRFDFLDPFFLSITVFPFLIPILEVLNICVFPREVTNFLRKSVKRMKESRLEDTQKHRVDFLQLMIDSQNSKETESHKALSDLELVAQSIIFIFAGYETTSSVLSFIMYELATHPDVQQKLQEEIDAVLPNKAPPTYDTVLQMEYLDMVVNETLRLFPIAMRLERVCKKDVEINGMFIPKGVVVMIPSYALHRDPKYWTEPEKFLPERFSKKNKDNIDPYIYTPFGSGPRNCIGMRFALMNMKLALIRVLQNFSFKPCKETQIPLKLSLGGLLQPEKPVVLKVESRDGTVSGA

Consider `COc1cncc(NS(=O)(=O)c2ccccc2C(=O)NCc2ccc(F)cc2F)c1` [Example 212, N-(2,4-difluorobenzyl)-2-{[(5-methoxypyridin-3-yl)amino]sulfonyl}benzamide], for which the IC50 on CYP3A4 [1] was below 3 nM; at CYP3A4 [3] it was 8 nM. For the same molecule, the Ki at CYP3A4 [2] (setting [4]) came to 20.3 nM; on CYP3A4 [2] (setting [5]), 6 nM.
As for `COc1cncc(NS(=O)(=O)c2ccccc2C(=O)NCc2c(F)cccc2Cl)c1` [Example 213, N-(2-chloro-6-fluorobenzyl)-2-{[(5-methoxypyridin-3-yl)amino]sulfonyl}benzamide], the IC50 on CYP3A4 [1] was below 3 nM; on CYP3A4 [3], 13 nM. Besides, the Ki amounted to 27.2 nM at CYP3A4 [2] (setting [4]) and 9.8 nM at CYP3A4 [2] (setting [5]).
As for `COc1cncc(NS(=O)(=O)c2ccccc2C(=O)NC2CCCC2)c1` [Example 214, N-cyclopentyl-2-{[(5-methoxypyridin-3-yl)amino]sulfonyl}benzamide], the values for the half-inhibitory concentration (IC50) on CYP3A4 [1] and on CYP3A4 [3] were 14 nM and 66 nM, respectively. Also, the figures for the Ki at CYP3A4 [2] (setting [4]) and at CYP3A4 [2] (setting [5]) were 355 nM and 47.3 nM, respectively.
Consider `COc1cncc(NS(=O)(=O)c2ccccc2C(=O)NC2CC3CCC2C3)c1` (centres unmarked) [Example 215, N-bicyclo[2.2.1]hept-2-yl-2-{[(5-methoxypyridin-3-yl)amino]sulfonyl}benzamide], for which the IC50 on CYP3A4 [1] was 25 nM; at CYP3A4 [3] it was 58 nM. The values for the Ki at CYP3A4 [2] (setting [4]) and at CYP3A4 [2] (setting [5]) were 216 nM and 43.3 nM, respectively.
Take `COc1cncc(NS(=O)(=O)c2ccccc2C(=O)NCc2ccc(Cl)cc2C)c1` [Example 216]: the half-maximal inhibitory concentration (IC50) at CYP3A4 [1] was 5 nM; on CYP3A4 [3] it was 7 nM. Besides, the Ki at CYP3A4 [2] (setting [4]) worked out at 6.9 nM; on CYP3A4 [2] (setting [5]) it was 3.5 nM.
For `CCOc1ccncc1NS(=O)(=O)c1ccccc1C(=O)NCCOC` [Example 217, 2-{[(4-ethoxypyridin-3-yl)amino]sulfonyl}-N-(2-methoxyethyl)benzamide], in that order: 179 nM, 230 nM, 965 nM and 216 nM.
`CCOCCNC(=O)c1ccccc1S(=O)(=O)Nc1cnccc1OCC` [Example 218, N-(2-ethoxyethyl)-2-{[(4-ethoxypyridin-3-yl)amino]sulfonyl}benzamide]: the figures for the IC50 at CYP3A4 [1] and on CYP3A4 [3] were 96 nM and 189 nM, respectively. Further, the Ki turned out to be 748 nM on CYP3A4 [2] (setting [4]) and 146 nM on CYP3A4 [2] (setting [5]).
Regarding `CCOc1ccncc1NS(=O)(=O)c1ccccc1C(=O)NCCOc1ccccc1` [Example 219], the IC50 on CYP3A4 [1] was 27 nM; at CYP3A4 [3], 32 nM. Further, the Ki on CYP3A4 [2] (setting [4]) amounted to 108 nM; on CYP3A4 [2] (setting [5]), 40.3 nM.
Consider `COc1ccncc1NS(=O)(=O)c1ccccc1C(=O)NCCc1ccccc1Cl` [Example 220, N-[2-(2-chlorophenyl)ethyl]-2-{[(4-methoxypyridin-3-yl)amino]sulfonyl}benzamide], for which the IC50 is 6 nM at CYP3A4 [1] and 11 nM at CYP3A4 [3]. The Ki is 13.7 nM at CYP3A4 [2] (setting [4]) and 9.1 nM on CYP3A4 [2] (setting [5]).
In the case of `COc1ccncc1NS(=O)(=O)c1ccccc1C(=O)NCCc1ccccc1OC(F)(F)F` [Example 221, 2-{[(4-methoxypyridin-3-yl)amino]sulfonyl}-N-{2-[2-(trifluoromethoxy)phenyl]ethyl} benzamide], the 50% inhibitory concentration (IC50) was 11 nM on CYP3A4 [1] and 12 nM on CYP3A4 [3]. Moreover, the Ki on CYP3A4 [2] (setting [4]) was 16 nM; on CYP3A4 [2] (setting [5]) it was 8.9 nM.
For `COc1ccncc1NS(=O)(=O)c1ccccc1C(=O)NCCc1ccccc1F` [Example 222], in that order: 15 nM, 34 nM, 207 nM and 12.7 nM.
With `CCOCCNC(=O)c1ccccc1S(=O)(=O)Nc1cnccc1OC` [Example 223, N-(2-ethoxyethyl)-2-{[(4-methoxypyridin-3-yl)amino]sulfonyl}benzamide], the concentration for half-maximal inhibition (IC50) on CYP3A4 [1] amounted to 260 nM; at CYP3A4 [3], 745 nM. For the same molecule, the Ki at CYP3A4 [2] (setting [4]) was above 1000 nM; on CYP3A4 [2] (setting [5]), 326 nM.
As to `COc1ccncc1NS(=O)(=O)c1ccccc1C(=O)NCCOc1ccccc1` [Example 224, 2-{[(4-methoxypyridin-3-yl)amino]sulfonyl}-N-(2-phenoxyethyl)benzamide], the results for the half-inhibitory concentration (IC50) on CYP3A4 [1] and on CYP3A4 [3] were 29 nM and 56 nM, respectively. Also, the Ki on CYP3A4 [2] (setting [4]) worked out at 399 nM; at CYP3A4 [2] (setting [5]) it was 56.8 nM.
In the case of `Cc1cncc(NS(=O)(=O)c2ccccc2C(=O)NCCc2ccccc2OC(F)(F)F)c1` [Example 225, 2-{[(5-methylpyridin-3-yl)amino]sulfonyl}-N-{2-[2-(trifluoromethoxy)phenyl]ethyl}benzamide], the 50% inhibitory concentration (IC50) on CYP3A4 [1] worked out at 7 nM; at CYP3A4 [3], 9 nM. Moreover, the Ki amounted to 15.7 nM at CYP3A4 [2] (setting [4]) and 1.7 nM on CYP3A4 [2] (setting [5]).
As to `Cc1cncc(NS(=O)(=O)c2ccccc2C(=O)NCCc2ccccc2Cl)c1` [Example 226, N-[2-(2-chlorophenyl)ethyl]-2-{[(5-methylpyridin-3-yl)amino]sulfonyl}benzamide], the figures for the half-maximal inhibitory concentration (IC50) at CYP3A4 [1] and at CYP3A4 [3] were below 3 nM and 8 nM, respectively. For the same molecule, the figures for the Ki on CYP3A4 [2] (setting [4]) and at CYP3A4 [2] (setting [5]) were 16.4 nM and 2.6 nM, respectively.
For `Cc1cncc(NS(=O)(=O)c2ccccc2C(=O)NCCc2ccccc2F)c1` [Example 227, N-[2-(2-fluorophenyl)ethyl]-2-{[(5-methylpyridin-3-yl)amino]sulfonyl}benzamide], in that order: 5 nM, 11 nM, 86.8 nM and 8.6 nM.
Consider `CCOCCNC(=O)c1ccccc1S(=O)(=O)Nc1cncc(C)c1` [Example 228, N-(2-ethoxyethyl)-2-{[(5-methylpyridin-3-yl)amino]sulfonyl}benzamide], for which the half-inhibitory concentration (IC50) was found to be 53 nM at CYP3A4 [1] and 161 nM on CYP3A4 [3]. Further, the Ki at CYP3A4 [2] (setting [4]) is above 1000 nM; on CYP3A4 [2] (setting [5]) it was 120 nM.
For the molecule `Cc1cncc(NS(=O)(=O)c2ccccc2C(=O)NCCOc2ccccc2)c1` [Example 229, 2-{[(5-methylpyridin-3-yl)amino]sulfonyl}-N-(2-phenoxyethyl)benzamide], the IC50 worked out at 16 nM on CYP3A4 [1] and 37 nM at CYP3A4 [3]. For the same molecule, the Ki was determined as 203 nM on CYP3A4 [2] (setting [4]) and 24.3 nM at CYP3A4 [2] (setting [5]).
As for `CCCCN(C)C(=O)c1ccccc1S(=O)(=O)Nc1cnccc1C` [Example 230, N-butyl-N-methyl-2-{[(4-methylpyridin-3-yl)amino]sulfonyl}benzamide], the values for the 50% inhibitory concentration (IC50) on CYP3A4 [1] and at CYP3A4 [3] were 42 nM and 87 nM, respectively. Moreover, the Ki at CYP3A4 [2] (setting [4]) amounted to 373 nM; on CYP3A4 [2] (setting [5]) it was 78.4 nM.
On to `COc1cncc(NS(=O)(=O)c2ccccc2C(=O)N2CCC(c3ccccc3)CC2)c1` [Example 231, N-(5-methoxypyridin-3-yl)-2-[(4-phenylpiperidin-1-yl)carbonyl]benzenesulfonamide], for which the IC50 on CYP3A4 [1] was 20 nM; on CYP3A4 [3] it was 31 nM. In addition, the figures for the Ki at CYP3A4 [2] (setting [4]) and at CYP3A4 [2] (setting [5]) were 59.1 nM and 8.9 nM, respectively.
As to `COc1cncc(NS(=O)(=O)c2ccccc2C(=O)N[C@H]2C[C@@H]2c2ccccc2)c1` [Example 232, 2-{[(5-methoxypyridin-3-yl)amino]sulfonyl}-N-[(1S2R)-2-phenylcyclopropyl]benzamide], the IC50 worked out at 28 nM at CYP3A4 [1] and 32 nM on CYP3A4 [3]. Besides, the figures for the Ki at CYP3A4 [2] (setting [4]) and on CYP3A4 [2] (setting [5]) were 99.4 nM and 11.5 nM, respectively.
Take `COc1cncc(NS(=O)(=O)c2ccccc2C(=O)NCc2ccc(S(C)(=O)=O)cc2)c1` [Example 233, 2-{[(5-methoxypyridin-3-yl)amino]sulfonyl}-N-[4-(methylsulfonyl)benzyl]benzamide]: the 50% inhibitory concentration (IC50) at CYP3A4 [1] was 67 nM; on CYP3A4 [3] it was 195 nM. The Ki at CYP3A4 [2] (setting [4]) is above 1000 nM; on CYP3A4 [2] (setting [5]) it was 182 nM.
`COc1cncc(NS(=O)(=O)c2ccccc2C(=O)NCCCc2ccccc2OC)c1` [Example 234, N-[3-(2-methoxyphenyl)propyl]-2-{[(5-methoxypyridin-3-yl)amino]sulfonyl}benzamide]: the 50% inhibitory concentration (IC50) at CYP3A4 [1] and at CYP3A4 [3] was above 750 nM in each case. Moreover, the results for the Ki at CYP3A4 [2] (setting [4]) and on CYP3A4 [2] (setting [5]) were 37.9 nM and 8.1 nM, respectively.
Consider `COc1cncc(NS(=O)(=O)c2ccccc2C(=O)NCCCc2ccccc2)c1` [Example 235, 2-{[(5-methoxypyridin-3-yl)amino]sulfonyl}-N-(3-phenylpropyl)benzamide], for which the half-inhibitory concentration (IC50) is 10 nM at CYP3A4 [1] and 19 nM at CYP3A4 [3]. The results for the Ki on CYP3A4 [2] (setting [4]) and at CYP3A4 [2] (setting [5]) were 107 nM and 8.7 nM, respectively.
As for `COCCCNC(=O)c1ccccc1S(=O)(=O)Nc1cncc(OC)c1` [Example 236, N-(3-methoxypropyl)-2-{[(5-methoxypyridin-3-yl)amino]sulfonyl}benzamide], the IC50 on CYP3A4 [1] was 132 nM; on CYP3A4 [3], 223 nM. The Ki is above 1000 nM at CYP3A4 [2] (setting [4]) and 142 nM on CYP3A4 [2] (setting [5]).
The matching figures for `CCOCCNC(=O)c1ccccc1S(=O)(=O)Nc1cncc(OC)c1` [Example 237, N-(2-ethoxyethyl)-2-{[(5-methoxypyridin-3-yl)amino]sulfonyl}benzamide]: 125 nM, 215 nM, 979 nM and 142 nM.
